Results from publication PMC7465886, “4-(N-Alkyl- and -Acyl-amino)-1,2,4-triazole-3-thione Analogs as Metallo-β-Lactamase Inhibitors: Impact of 4-Linker on Potency and Spectrum of Inhibition” (Biomolecules, 2020).

Legend:
[1] = target: T1, VIM-2 (Escherichia coli, UniProt Q5U7L7); experiment: MBL inhibition, reporter substrate method, VIM-2; assay type: biochemical; settings: hydrazine and hydrazide series; read-out: Ki Value VIM-2
T1 construct: made in house; host or cells: E. coli BL21(DE3) derivative, pET-9a
Experimental: Compounds were prepared in DMSO at a final concentration of 50 mM prior to dilution in the assay buffer. The reaction rate was measured as the variation of absorbance observed upon substrate hydrolysis in a UV-Vis spectrophotometer or microplate reader at a wavelength of 300 nm (imipenem, meropenem), 260 nm (cefotaxime), or 482 nm (nitrocefin) and in the presence of a purified MBL enzyme (such as VIM-1, VIM-2, VIM-4, NDM-1, and IMP-1, at a final concentration ranging from 1 to 70 nM).
These enzymes were overproduced in derivatives of E. coli BL21(DE3) carrying a pET-9 a (IMP-1, VIM-1, VIM-2, and VIM-4) or pET-15 b (NDM-1) vector into which the metallo-β-lactamase-encoding open reading frame was cloned. Bacterial strains were grown in the auto-inducing medium, ZYP-5052, supplemented with 50 μg/mL kanamycin for 24 h at 37 °C [38]. IMP-1, VIM-1, VIM-2, and VIM-4 were purified by ion-exchange and gel filtration chromatography using an AKTA Purifier platform (GE Healthcare, Uppsala, Sweden) as previously described. NDM-1 (residues 37-270) was produced as an amino-terminal 6 xHis-tag fusion protein and was purified using affinity chromatography. After growth for 26 h at 25 °C, bacterial cells were harvested by centrifugation (10,000× g, 30 min, 4 °C), resuspended in 10 mM HEPES buffer (pH 7.5) containing 0.15 M NaCl (buffer A) in one-fifth of the original culture volume, and lysed by sonication. Cellular debris was removed by centrifugation (12,000× g, 40 min, 4 °C). The clarified sample was loaded on a HisTrap HP column (bed volume, 5 mL; GE Healthcare), followed by a wash step (25 mL) with buffer A containing 20 mM imidazole. Proteins were eluted using buffer A containing 350 mM imidazole. The resulting protein sample was desalted (HiPrep 26/10 Desalting column, GE Healthcare) using 20 mM triethanolamine (pH 7.2) supplemented with 50 μM ZnSO4 and concentrated using an Amicon Ultra-15 (MW cut-off, 10 kDa; Millipore, Burlington, MA, USA). The concentrated sample was loaded on a Superdex 75 prep grade column (XK16/100 column; bed volume, 140 mL; GE Healthcare) and the proteins eluted with buffer A containing 50 μM ZnSO4. The active fractions were pooled and stored at −20 °C. The purity of the protein preparations was estimated >95% by SDS-PAGE analysis. The authenticity of the enzyme preparations was confirmed by electron spray ionization mass spectrometry, as previously described.
The inhibition constants (Ki) were determined on the basis of a model of competitive inhibition by analyzing the dependence of the ratio v0/vi (v0, hydrolysis velocity in the absence of inhibitor; vi, hydrolysis velocity in the presence of inhibitor) as a function of [I] as already described. The slope of the plot of v0/vi vs. [I], which corresponds to Km^S/(Km^S + [S])Ki (where Km^S is the Km value of the reporter substrate and [S] its concentration in the reaction mixture) and allowed the calculation of the Ki value. Alternatively, a Dixon plot analysis was carried out by measuring the initial hydrolysis rates in the presence of variable concentrations of inhibitor and substrate. This allowed Ki values to be determined and supported the hypothesis that the various compounds behaved as competitive inhibitors of the various tested enzymes. The assays were performed in triplicate.

[2] = target: T2, CphA (Aeromonas hydrophila, UniProt P26918); experiment: MBL inhibition, CphA (imipenem hydrolysis); assay type: biochemical; settings: read-out: Percentage of Inhibition at 100 μM Inhibitor, CphA
T2 construct: made in house
Experimental: Compounds were prepared as 10 mM solutions in DMSO before dilution with appropriate buffers. Buffers were 25 mM Hepes pH 7.5 for CphA or 25 mM Hepes pH 7.5, 50 µM ZnCl2 for L1. The rates in the absence of inhibitor were not modified by addition of 1% DMSO. CphA and L1 enzymes, purified as previously described, were used at concentrations between 0.2 and 0.8 nM, respectively. The enzyme and the inhibitor (100 µM) were pre-incubated for 30 min in a volume of 495 µL at room temperature. The hydrolysis of a solution of 100 µM imipenem for CphA was monitored by following the absorbance variation at 300 nm using a Specord 50 PLUS spectrophotometer (Analytik Jena, Jena, Germany). For L1, the reporter substrate was nitrocefin (100 µM). The enzyme activity was measured by following the absorbance variation at 482 nm. The substrate hydrolysis was done at 30 °C. The activity was tested by measuring the initial rates in three samples without inhibitor that allowed to determine the percentage of residual β-lactamase activity in the presence of inhibitors. […] The Hanes linearization of the Henri–Michaelis equation was used, and Ki was calculated on the basis of the following equation, v = (Vmax.S)/[S + Km(1 + I/Ki)]. […]

[3] = target: T1, VIM-2; experiment: Isothermal titration calorimetry of binding to VIM-2
Experimental: ITC titrations were performed on a MicroCal ITC200 (GE-Malvern) equipped with a 200 µL Hastelloy sample cell and an automated 40 µL glass syringe rotating at 1000 rpm. VIM-2 in 10 mM Hepes-NaOH, 0.15 M NaCl, 50 µM ZnSO4, pH 7.5 was diluted to the desired concentration with the same buffer and was brought to a DMSO concentration identical to that of the injected compound. The tested compound was solubilized in DMSO at 20 mM concentration and was diluted to 200 µM with the enzyme buffer, resulting in a final DMSO concentration of 1%.
In a standard experiment, VIM-2 (19 µM) was titrated by one initiating injection (0.5 µL) followed by 19 injections (2 µL) of compound (200 µM) at an interval of 150 s. Dilution heat of compound injections into buffer, at the corresponding DMSO concentration, were subtracted from raw data. The data so obtained were fitted via nonlinear least squares minimization method to determine binding stoichiometry (n), association constant (Ka), and change in enthalpy of binding (∆H°b) using ORIGIN 7 software v.7 (OriginLab, Northampton, MA, USA). In the fitting procedure, the compound concentration was lowered in order to provide n around 1 and to take compound solubility into account under ITC conditions. The Gibbs free energy of binding, ∆G°b, was calculated from Ka (∆G°b = −RT ln Ka) and the entropic term, T∆S°b, was derived from the Gibbs–Helmholtz equation using the experimental ∆H°b value (∆G°b = ∆H°b − T∆S°b).

T2 sequence (P26918 28-254): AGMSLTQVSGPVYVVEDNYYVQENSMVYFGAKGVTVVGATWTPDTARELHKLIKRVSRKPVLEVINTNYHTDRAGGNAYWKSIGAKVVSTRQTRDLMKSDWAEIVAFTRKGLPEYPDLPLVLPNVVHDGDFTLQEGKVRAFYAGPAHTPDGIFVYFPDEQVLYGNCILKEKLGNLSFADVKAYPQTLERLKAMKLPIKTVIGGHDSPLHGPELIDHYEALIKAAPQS

With O=C(O)c1ccccc1CNn1c(-c2ccccc2)n[nH]c1=S [Compound 1] the Ki [1] was 1400 nM, the inhibition at 100 µM [2] was 60% and the Kd [3] was 358 nM. For the same molecule, the Ka ([3]; 25 °C) was 2.8 ± 0.4 µM⁻¹, the “n, stoichiometry of binding” value ([3]; 25 °C) was 1.01 ± 0.01 and the “∆H°b” value ([3]; 25 °C) was -6.3 ± 0.1 kcal/mol. The “∆G°b” value ([3]; 25 °C, calculated from Ka) was -8.8 kcal/mol and the “T∆S°b” value ([3]; 25 °C, from Gibbs–Helmholtz equation) was 2.5 kcal/mol.
